According to publication PMC3894197, “Penam Sulfones and β-Lactamase Inhibition: SA2-13 and the Importance of the C2 Side Chain Length and Composition” (PLoS ONE, 2014):

Assays:
[1] = system: E. coli ATCC 35218 containing TEM-1; test: Antimicrobial disc assay; type: cell-based, Escherichia coli; conditions: 10 µg ampicillin and 10 µg inhibitor; disc and ampicillin alone 6 mm
Experimental: (§1) In brief, paper discs (6 mm diameter) were soaked with 10 µg inhibitor and 10 µg of ampicillin or cephalothin. Discs were placed on Mueller-Hinton (M-H) agar plates plated with 10^4–10^5 CFUs of Escherichia coli DH10B harboring SHV-1 or PDC-3 or E. coli ATCC 35218 containing TEM-1. Measured zone clearing diameters were used to determine susceptibility.
(§2) Supplementary file pone.0085892.s003.docx: Table S1 Antimicrobial disc assays. These assays were performed with 10 µg ampicillin and 10 µg inhibitor. The size of the disc and the ampicillin zone size alone is 6 mm. (DOCX) Click here for additional data file.

E. coli DH10B SHV-1 = test: Antimicrobial disc assay; type: cell-based, Escherichia coli; conditions: for Disc Assay Zone E. coli DH10B SHV-1: 10 µg ampicillin and 10 µg inhibitor, disc and ampicillin alone 6 mm
Experimental: as §1, §2

E. coli DH10B PDC-3 = test: Antimicrobial disc assay; type: cell-based, Escherichia coli; conditions: for Disc Assay Zone E. coli DH10B PDC-3: 10 µg ampicillin and 10 µg inhibitor, disc and ampicillin alone 6 mm
Experimental: as §1, §2

wt SHV-1 = molecular target: T1, wt SHV-1 (Klebsiella pneumoniae, UniProt P0AD64); test: biochemical; type: biochemical
T1 construct: made in house
T1 sequence (P0AD64 22-286): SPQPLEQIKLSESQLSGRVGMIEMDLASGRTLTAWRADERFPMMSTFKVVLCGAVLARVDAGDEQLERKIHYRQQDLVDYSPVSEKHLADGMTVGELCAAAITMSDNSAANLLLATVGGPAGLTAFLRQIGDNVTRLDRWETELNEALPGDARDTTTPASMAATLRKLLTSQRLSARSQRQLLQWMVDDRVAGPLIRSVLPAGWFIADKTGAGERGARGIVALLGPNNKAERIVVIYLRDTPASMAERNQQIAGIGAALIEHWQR
Experimental: (§3) Measurements were performed using glass cuvettes with 1 mL final volume in 1 mM phosphate-buffered saline (PBS) at pH 7.4 as previously described.

KPC-2 = system: KPC-2; set-up: method as in PMID 22330909; conditions: the defined K i represents the K m used in Ke et al.; cited from earlier work
SHV-1 [2] = molecular target: T2, SHV-1 (Klebsiella pneumoniae, UniProt P0AD64); test: IC50 by nitrocefin hydrolysis after pre-incubation of enzyme and inhibitor; type: biochemical
T2 construct: made in house
T2 sequence (P0AD64 22-286): as above
Experimental: as §3

SHV-1 [3] = molecular target: T2, SHV-1; test: Inactivation kinetics (kinact, KI, kinact/KI) with nitrocefin; type: biochemical
Experimental: kinact (the first-order rate constant of inactivation) was determined by monitoring the inactivation of the enzyme by increasing concentrations of inhibitor over a time course using 21 nM of enzyme and 100 µM of nitrocefin according to a previously published method. The k obs determined using Origin (OriginLab Corporation) to plot the reciprocal of the ordinate of the intersection of the straight lines obtained from the initial velocity of inhibition, v o, and the final velocity of inhibition, vf. Each k obs was plotted against the inhibitor concentration [I] and fit to equation 2 to calculate k inact and k inact/K I. [drawing 2] (2)

SHV-1 [4] = molecular target: T2, SHV-1; test: Partition ratio (turnover number, tn); type: biochemical; conditions: SHV-1, 24 hour incubation, loss of >90% nitrocefin hydrolysis
Experimental: The partition ratio (turnover number, t n = k cat/k inact) or the partitioning of the initial enzyme-inhibitor complex between hydrolysis and enzyme inactivation was measured by incubating fixed enzyme concentrations with increasing amounts of inhibitor over a 24 hour period in a total volume of 100 µL as described. After 24 hours, a 20 µL aliquot of the incubation mix was removed and the steady-state hydrolysis of nitrocefin was measured and compared to an uninhibited control. The t n was determined as the inhibitor proportion that led to a loss of >90% of nitrocefin hydrolysis by the enzyme.

SHV-1 [5] = molecular target: T2, SHV-1; test: Reactivation of β-lactamase (k obs react) after inhibitor/enzyme incubation; type: biochemical; conditions: SHV-1, 90:1 inhibitor:enzyme, 30 min incubation
Experimental: Then, unbound inhibitor was washed out with a Macro Spin Column G10 (The Nest Group). A competition assay was performed with 100 µM of nitrocefin and a 5 µL aliquot of the incubated mixture at three different time points (5, 30, and 1440 min) to determine the reactivation of the enzyme. Tazobactam kinetic profiles are included for comparison. EnzFitter™ (Biosoft) and Microsoft Excel were used to analyze the data.

SHV K234R [6] = molecular target: T3, SHV K234R (Klebsiella pneumoniae, UniProt P0AD64, K230R); test: biochemical; type: biochemical
T3 construct: GST (N, cleaved yes); made in house; host or cells: Origami2 (DE3) E. coli
T3 sequence (P0AD64 22-286 K230R): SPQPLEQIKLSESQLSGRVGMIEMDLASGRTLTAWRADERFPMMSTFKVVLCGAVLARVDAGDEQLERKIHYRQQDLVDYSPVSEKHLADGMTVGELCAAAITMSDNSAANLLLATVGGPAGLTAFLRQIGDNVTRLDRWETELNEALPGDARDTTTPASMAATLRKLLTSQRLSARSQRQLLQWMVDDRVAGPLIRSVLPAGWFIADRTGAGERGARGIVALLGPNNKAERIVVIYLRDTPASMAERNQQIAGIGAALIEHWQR
Experimental: as §3

SHV-1 [7] = molecular target: T2, SHV-1; test: Circular dichroism thermal denaturation; conditions: CD at 208 nm, apo-SHV-1 54.2°C
Experimental: (§4) Circular dichroism (CD) was carried out on the SHV-1 and the SHV K234R proteins with and without SA2-13 and this is presented in Figure S1. In short, CD was performed on a JASCO J-815 spectrometer with a Peltier-effect temperature controller (GE Healthcare) as previously described. Quartz cells with a 0.1 cm pathlength were used for experiments (Hellma). Thermal denaturation was performed from 22–72°C with a heating rate of 2°C/min and raw data was corrected for the fraction of denatured protein (f u). The collected data at 208 nm was utilized to calculate a melting temperature (T m).

SHV K234R [8] = molecular target: T3, SHV K234R; test: Circular dichroism thermal denaturation; conditions: CD at 208 nm, apo-K234R 48.2°C
Experimental: as §4

SHV-1 [9] = molecular target: T2, SHV-1; conditions: cited from earlier work

CC1(C(=O)OCC(N)=O)C(C(=O)O)N2C(=O)CC2S1(=O)=O (centres unmarked) [PSR-3-226]
Disc Assay Zone E. coli ATCC 35218 (TEM-1) [1]: 12 mm | Disc Assay Zone E. coli DH10B SHV-1 (E. coli DH10B SHV-1): 6 mm | Disc Assay Zone E. coli DH10B PDC-3 (E. coli DH10B PDC-3): 12 mm | microbial activity versus AmpC (PDC-3) expressed in E. coli DH10B (E. coli DH10B PDC-3; disc assay): had microbial activity | Ki (wt SHV-1): 2.6 ± 0.3 µM | K m against KPC-2 (KPC-2): 3.8 ± 0.4 µM | IC50 (SHV-1 [2]): 0.37 ± 0.03 µM | Ki (SHV-1 [3]): 1 ± 0.1 µM | k inact/K I (SHV-1 [3]; SHV-1): 60000 ± 10000 M⁻¹ s⁻¹ | t n 24h (SHV-1 [4]): >1500

CC1(COC(=O)CCC(=O)O)C(C(=O)O)N2C(=O)CC2S1(=O)=O (centres unmarked) [PSR-4-155]
k obs react 30 min (SHV-1 [5]): >0.2 s⁻¹ | Disc Assay Zone E. coli ATCC 35218 (TEM-1) [1]: 13 mm | Disc Assay Zone E. coli DH10B SHV-1 (E. coli DH10B SHV-1): 6 mm | Disc Assay Zone E. coli DH10B PDC-3 (E. coli DH10B PDC-3): 6 mm | Ki (wt SHV-1): 2.7 ± 0.2 µM | Ki fold higher compared to PSR-4-157 (wt SHV-1; SHV-1): ~2 fold | IC50 (SHV-1 [2]): 0.44 ± 0.04 µM | Ki (SHV-1 [3]): 2.1 ± 0.2 µM | KI fold higher compared to PSR-4-157 (SHV-1 [3]; SHV-1): ~2 fold | k inact/K I (SHV-1 [3]; SHV-1): 50000 ± 10000 M⁻¹ s⁻¹ | kinact/KI fold lower compared to PSR-4-157 (SHV-1 [3]; SHV-1): 2 fold | t n 24h (SHV-1 [4]): >1500

CC1(COC(=O)CCCCC(=O)O)C(C(=O)O)N2C(=O)CC2S1(=O)=O (centres unmarked) [PSR-4-157]
Disc Assay Zone E. coli ATCC 35218 (TEM-1) [1]: 11 mm | Disc Assay Zone E. coli DH10B SHV-1 (E. coli DH10B SHV-1): 6 mm | Disc Assay Zone E. coli DH10B PDC-3 (E. coli DH10B PDC-3): 6 mm | Ki (wt SHV-1): 1.7 ± 0.1 µM | IC50 (SHV-1 [2]): 0.16 ± 0.01 µM | fold higher IC50 compared to SA2-13 (SHV-1 [2]; SHV-1): 2 fold | Ki (SHV-1 [3]): 1 ± 0.2 µM | k inact/K I (SHV-1 [3]; SHV-1): 100000 ± 20000 M⁻¹ s⁻¹ | t n 24h (SHV-1 [4]): >1500

C[C@]1(COC(=O)CCCC(=O)O)[C@H](C(=O)O)N2C(=O)C[C@H]2S1(=O)=O [SA2-13]
k obs react 30 min (SHV-1 [5]): 0.004 ± 0.001 s⁻¹ | Disc Assay Zone E. coli ATCC 35218 (TEM-1) [1]: 14 mm | Disc Assay Zone E. coli DH10B SHV-1 (E. coli DH10B SHV-1): 6 mm | Disc Assay Zone E. coli DH10B PDC-3 (E. coli DH10B PDC-3): 6 mm | Ki (wt SHV-1): 1.7 ± 0.1 µM | Ki (SHV K234R [6]): 2.1 ± 0.2 µM | fold increase of K i for K234R SHV relative to wt SHV-1 (SHV K234R [6]; K234R vs wt SHV-1): 2 fold | melting temperature Tm of SHV-1 with inhibitor (SHV-1 [7]): unaffected | melting temperature Tm of SHV-1 with inhibitor (SHV-1 [7]; listed as MN-2-261): 54.5 °C | melting temperature Tm of SHV K234R with inhibitor (SHV K234R [8]): unaffected | melting temperature Tm of SHV K234R with inhibitor (SHV K234R [8]; listed as MN-2-261): 48.7 °C | k react fold decrease compared to tazobactam (SHV-1 [9]): about 10 fold | IC50 (SHV-1 [2]): 0.081 ± 0.007 µM | Ki (SHV-1 [3]): 0.19 ± 0.01 µM | k inact/K I (SHV-1 [3]; SHV-1): 370000 ± 60000 M⁻¹ s⁻¹ | t n 24h (SHV-1 [4]): 120

C[C@]1(Cn2ccnn2)[C@H](C(=O)O)N2C(=O)C[C@H]2S1(=O)=O [tazobactam, reference compound]
k obs react 30 min (SHV-1 [5]): 0.040 ± 0.001 s⁻¹ | Disc Assay Zone E. coli ATCC 35218 (TEM-1) [1]: 21 mm | Disc Assay Zone E. coli DH10B SHV-1 (E. coli DH10B SHV-1): 6 mm | inhibition of SHV-1 expressing cells (E. coli DH10B SHV-1; DH10B E. coli, high SHV-1 expression): Inhibition was not observed | Disc Assay Zone E. coli DH10B PDC-3 (E. coli DH10B PDC-3): 14 mm | t n 24h (SHV-1 [4]): 5
